Several values for one entry are separate records, joined by “and”; a condition that tells them apart may be missing. Equal values may be shown once. Read-outs that look alike come from different tables or passages of the source.
Tests used:
[1] = Particle size of BisEDT microparticles (Nanosizer/Zetasizer); type: physicochemical; details: resuspended in 2% Pluronic F-68, sonicated
Description: The dried particulate matter was characterized to assess the particle size properties. Briefly, microparticles were resuspended in 2% Pluronic® F-68 (BASF, Mt. Olive, N.J.) and the suspension was sonicated for 10 minutes in a water bath sonicator at standard setting prior to analysis using a Nanosizer/Zetasizer Nano-S particle analyzer (model ZEN1600 (without zeta-potential measuring capacity), Malvern Instruments, Worcestershire, UK) according to the manufacturer's recommendations.

[2] = tested on: beta-hemolytic streptococci; assay: Broth microdilution MIC (Example 11); details: read-out: MIC values
Candida albicans = assay: Broth microdilution antifungal susceptibility (Example 13); type: cell-based; details: Candida albicans
S. aureus ATCC 29213 [3] = details: control strain ATCC 29213; per CLSI M100-S24 or provided by Microbion; cited from earlier work
Enterobacteriaceae = assay: Broth microdilution MIC (Example 11); details: Escherichia coli, read-out: MIC values
S. maltophilia = assay: MIC against CF bacterial strains (Example 5); details: Stenotrophomonas maltophilia
C. parapsilosis = assay: Broth microdilution MIC, yeast (Example 11); type: cell-based
anaerobes = assay: Agar dilution MIC (Example 11); type: cell-based; details: read-out: MIC values
S. aureus ATCC 29213 [4] = assay: Broth microdilution MIC, ATCC QC organism (Example 12); details: Staphylococcus aureus, ATCC29213
Neisseria gonorrhoeae = assay: Agar dilution MIC (Example 11); type: cell-based
[5] = tested on: B. cenocepacia (B cepacia complex); assay: MIC against CF bacterial strains (Example 5); details: Burkholderia cenocepacia
C. glabrata = assay: Broth microdilution MIC, yeast (Example 11); type: cell-based; details: Nakaseomyces glabratus, FLU^R
B. cenocepacia = assay: Broth microdilution MIC (Example 10); details: initial MIC testing
B. cepacia = assay: Broth microdilution MIC (Example 10); details: initial MIC testing

C1C[S][Bi]([S]CC[S][Bi]2[S]CC[S]2)[S]1 [BisEDT, bismuth-1,2-ethanedithiol]
about 1.3 microns: peak volumetric mean diameter (VMD) of microparticles [1]

CC(S)C(C)S.[Bi] (stereo not shown) [BisBDT, bismuth-2,3-butanedithiol]
1 µg/mL: MIC (Candida albicans; 24 h, read-out: MIC0 (complete inhibition), isolate MMX 7053 (Susceptible), 24 hr) | MIC (Candida albicans; 24 h, read-out: MIC0 (complete inhibition), isolate MMX 7067 (FLU-R, VORI-R), 24 hr) | MIC (Candida albicans; 24 h, read-out: MIC2 (50% inhibition)) | MIC (Candida albicans; 24 h, read-out: MIC2 (50% inhibition), isolate ATCC MYA-2732 (FLU-R, VORI-I), 24 hr) | MIC (Candida albicans; 24 h, read-out: MIC2 (50% inhibition), isolate MMX 7424 (CASP-R, MICA-R), 24 hr) | MIC (Candida albicans; 24 h, read-out: MIC2 (50% inhibition), isolate MMX 7445 (FLU-R, VORI-R), 24 hr) | MIC (Candida albicans; ATCC204276, 24 h, read-out: MIC0 (complete inhibition), isolate ATCC 204276 (MICA-R), 24 hr) | MIC (Candida albicans; ATCC204276, read-out: MIC2 (50% inhibition), isolate ATCC 204276 (MICA-R), result after 48 hr incubation (insufficient growth at 24 hr)) | MIC (C. parapsilosis; Lodderomyces parapsilosis, ATCC22019, 48 h) | MIC (C. glabrata; 48 h, C. glabrata MMX 7086)
0.12 µg/mL: MIC (S. aureus ATCC 29213 [4]) | MIC (Neisseria gonorrhoeae; N. gonorrhoeae MMX 6791, CIP^R) | MIC (Neisseria gonorrhoeae; N. gonorrhoeae MMX 6792, CIP^R)
0.06 to 0.25 µg/mL: MIC (Neisseria gonorrhoeae; read-out: MIC values, QC isolate, ciprofloxacin-resistant, ceftriaxone non-susceptible isolates)
1 to 4 µg/mL: MIC (anaerobes)
0.25 mcg/mL and 0.25 (0.12-0.5) mcg/mL: Expected MIC: goal (acceptable range) (S. aureus ATCC 29213 [3])
0.25 µg/mL: MIC (Candida albicans; 24 h, read-out: MIC2 (50% inhibition), isolate MMX 7403 (Susceptible), 24 hr) | MIC (Candida albicans; 24 h, read-out: MIC2 (50% inhibition), isolate MMX 7430 (Susceptible), 24 hr) | MIC (C. parapsilosis; C. parapsilosis MMX 7555, FLU^R, 24 hr) | MIC (C. parapsilosis; Lodderomyces parapsilosis, 24 h) | MIC (Neisseria gonorrhoeae; N. gonorrhoeae MMX 6793, CIP^R) | MIC (C. glabrata; 24 h, C. glabrata MMX 7318)
0.03 to 2 µg/mL: MIC [2]
2 µg/mL: MIC (Candida albicans; 24 h, read-out: MIC0 (complete inhibition), isolate MMX 7437 (FLU-I), 24 hr) | MIC (Candida albicans; 24 h, read-out: MIC0 (complete inhibition), isolate MMX 7445 (FLU-R, VORI-R), 24 hr) | MIC (Candida albicans; 24 h, read-out: MIC0 (complete inhibition)) | MIC (Candida albicans; ATCC90028, 24 h, read-out: MIC0 (complete inhibition), isolate ATCC 90028 (Susceptible), 24 hr)
0.13 µg/mL: MIC (S. maltophilia)
0.5 to 2 µg/mL: MIC (Enterobacteriaceae)
4 µg/mL: MIC [5]
0.06 µg/mL: MIC (Neisseria gonorrhoeae; ATCC49226, N. gonorrhoeae MMX 683 (ATCC 49226), QC) | MIC (Neisseria gonorrhoeae; N. gonorrhoeae MMX 6757, CTX NS)
0.5 µg/mL: MIC (Candida albicans; 24 h, read-out: MIC0 (complete inhibition), isolate MMX 7430 (Susceptible), 24 hr) | MIC (Candida albicans; 24 h, read-out: MIC2 (50% inhibition), isolate MMX 7053 (Susceptible), 24 hr) | MIC (Candida albicans; 24 h, read-out: MIC2 (50% inhibition), isolate MMX 7067 (FLU-R, VORI-R), 24 hr) | MIC (Candida albicans; ATCC90028, 24 h, read-out: MIC2 (50% inhibition), isolate ATCC 90028 (Susceptible), 24 hr) | MIC (C. parapsilosis; C. parapsilosis MMX 7555, FLU^R, 48 hr) | MIC (C. parapsilosis; Lodderomyces parapsilosis, 48 h) | MIC (C. parapsilosis; Lodderomyces parapsilosis, ATCC22019, 24 h) | MIC (C. glabrata; 24 h, C. glabrata MMX 7086) | MIC (C. glabrata; 48 h, C. glabrata MMX 7318)

C[C@@H](O)[C@H]1C(=O)N2C(C(=O)O)=C(S[C@@H]3CN[C@H](C(=O)N(C)C)C3)[C@H](C)[C@H]12 [MEM]
2 µg/mL: MIC (B. cenocepacia; B. cenocepacia isolate 0813 (CPI-I)) | MIC (B. cepacia; B. cepacia isolate 0547)
4 µg/mL: MIC (B. cenocepacia; B. cenocepacia isolate 0548 (CIP-R)) | MIC (B. cenocepacia; B. cenocepacia isolate 1631) | MIC (B. cenocepacia; B. cenocepacia isolate 1783) | MIC (B. cenocepacia; B. cenocepacia isolate 8555) | MIC (B. cepacia; B. cepacia isolate 0546) | MIC (B. cepacia; B. cepacia isolate 1793) | MIC (B. cepacia; B. cepacia isolate 1794) | MIC (B. cepacia; B. cepacia isolate 9040)

From patent publication US11464749B2, “Bismuth-thiol compositions and methods of use” (Microbion Corporation, priority 2018, dated 2022)
